Reference: the supplement of paper PMC10307832

What was measured:
Experiment in all cases: relative viability (nuclei count vs DMSO), 5 days (fraction); higher = more cells survive
5-Fluorouracil + AZD7762 = compound: O=c1[nH]cc(F)c(=O)[nH]1 [5-Fluorouracil] + NC(=O)Nc1cc(-c2cccc(F)c2)sc1C(=O)N[C@H]1CCCNC1 [AZD7762] (partner 0.2 µM)
Summary of the method: (§1)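 Five library-drug doses in √10 steps were combined with a fixed anchor-drug dose, or a single drug was given alone, by pin tool to lung cancer cell lines in 1536-well plates the day after seeding. Nuclei were stained and counted after 5 days. Relative viability is the nuclei count in treated wells over that in vehicle wells, taken as the median of duplicate plates.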

Sulindac + Foretinib = compound: CC1=C(CC(=O)O)c2cc(F)ccc2/C1=C\c1ccc([S+](C)[O-])cc1 [Sulindac] + COc1cc2c(Oc3ccc(NC(=O)C4(C(=O)Nc5ccc(F)cc5)CC4)cc3F)ccnc2cc1OCCCN1CCOCC1 [Foretinib] (partner 0.25 µM)
Summary of the method: as §1

[1] = compound: CN[C@@H]1C[C@H]2O[C@@](C)([C@@H]1OC)n1c3ccccc3c3c4c(c5c6ccccc6n2c5c31)C(=O)NC4 [Staurosporine] + COc1cc2c(Oc3ccc(NC(=O)C4(C(=O)Nc5ccc(F)cc5)CC4)cc3F)ccnc2cc1OCCCN1CCOCC1 [Foretinib] (partner 0.25 µM)
Summary of the method: as §1

[2] = compound: CN[C@@H]1C[C@H]2O[C@@](C)([C@@H]1OC)n1c3ccccc3c3c4c(c5c6ccccc6n2c5c31)C(=O)NC4 [Staurosporine] + CCNC(=O)c1noc(-c2cc(C(C)C)c(O)cc2O)c1-c1ccc(CN2CCOCC2)cc1 [Luminespib] (partner 0.01 µM)
Summary of the method: as §1

## NCI-H1648
5-Fluorouracil + AZD7762; first compound 0.02 µM
  relative viability: 0.582
5-Fluorouracil + AZD7762; first compound 0.2 µM
  relative viability: 0.831
5-Fluorouracil + AZD7762; first compound 0.6325 µM
  relative viability: 0.493
5-Fluorouracil + AZD7762; first compound 2 µM
  relative viability: 0.435

## NCI-H661
Sulindac + Foretinib; first compound 0.08 µM
  relative viability: 1.12
Sulindac + Foretinib; first compound 0.253 µM
  relative viability: 1.05
Sulindac + Foretinib; first compound 0.8 µM
  relative viability: 0.999
Sulindac + Foretinib; first compound 2.53 µM
  relative viability: 1.1
Sulindac + Foretinib; first compound 8 µM
  relative viability: 1.03
[1]; first compound 0.005 µM
  relative viability: 1.13
[1]; first compound 0.01581 µM
  relative viability: 0.571
[1]; first compound 0.05 µM
  relative viability: 0.481
[1]; first compound 0.1581 µM
  relative viability: 0.27
[1]; first compound 0.5 µM
  relative viability: 0.216
[2]; first compound 0.005 µM
  relative viability: 0.986
[2]; first compound 0.01581 µM
  relative viability: 0.707
[2]; first compound 0.05 µM
  relative viability: 0.604
[2]; first compound 0.1581 µM
  relative viability: 0.436
[2]; first compound 0.5 µM
  relative viability: 0.211

## NCI-H1792
5-Fluorouracil + AZD7762; first compound 0.02 µM
  relative viability: 0.641
5-Fluorouracil + AZD7762; first compound 0.2 µM
  relative viability: 0.303
5-Fluorouracil + AZD7762; first compound 0.6325 µM
  relative viability: 0.213
5-Fluorouracil + AZD7762; first compound 2 µM
  relative viability: 0.218
[2]; first compound 0.005 µM
  relative viability: 0.459
[2]; first compound 0.01581 µM
  relative viability: 0.287
[2]; first compound 0.05 µM
  relative viability: 0.18
[2]; first compound 0.1581 µM
  relative viability: 0.188
[2]; first compound 0.5 µM
  relative viability: 0.199

## NCI-H1563
Sulindac + Foretinib; first compound 0.08 µM
  relative viability: 0.98
Sulindac + Foretinib; first compound 0.253 µM
  relative viability: 1.02
Sulindac + Foretinib; first compound 0.8 µM
  relative viability: 0.912
Sulindac + Foretinib; first compound 2.53 µM
  relative viability: 0.89
Sulindac + Foretinib; first compound 8 µM
  relative viability: 0.99
[1]; first compound 0.005 µM
  relative viability: 0.696
[1]; first compound 0.01581 µM
  relative viability: 0.612
[1]; first compound 0.05 µM
  relative viability: 0.575
[1]; first compound 0.1581 µM
  relative viability: 0.611
[1]; first compound 0.5 µM
  relative viability: 0.463
[2]; first compound 0.005 µM
  relative viability: 0.54
[2]; first compound 0.01581 µM
  relative viability: 0.481
[2]; first compound 0.05 µM
  relative viability: 0.504
[2]; first compound 0.1581 µM
  relative viability: 0.446
[2]; first compound 0.5 µM
  relative viability: 0.408

## HCC-366
Sulindac + Foretinib; first compound 0.08 µM
  relative viability: 0.838
Sulindac + Foretinib; first compound 0.253 µM
  relative viability: 0.964
Sulindac + Foretinib; first compound 0.8 µM
  relative viability: 0.999
Sulindac + Foretinib; first compound 2.53 µM
  relative viability: 0.994
Sulindac + Foretinib; first compound 8 µM
  relative viability: 0.998
[1]; first compound 0.005 µM
  relative viability: 1.07
[1]; first compound 0.05 µM
  relative viability: 0.799
[1]; first compound 0.1581 µM
  relative viability: 0.105
[1]; first compound 0.5 µM
  relative viability: 0.303
5-Fluorouracil + AZD7762; first compound 0.02 µM
  relative viability: 0.354
5-Fluorouracil + AZD7762; first compound 0.2 µM
  relative viability: 0.308
5-Fluorouracil + AZD7762; first compound 0.6325 µM
  relative viability: 0.119
5-Fluorouracil + AZD7762; first compound 2 µM
  relative viability: 0.0755

## SW 1573
Sulindac + Foretinib; first compound 0.08 µM
  relative viability: 1.19
Sulindac + Foretinib; first compound 0.253 µM
  relative viability: 1.17
Sulindac + Foretinib; first compound 0.8 µM
  relative viability: 0.776
Sulindac + Foretinib; first compound 2.53 µM
  relative viability: 0.788
Sulindac + Foretinib; first compound 8 µM
  relative viability: 0.955
[1]; first compound 0.005 µM
  relative viability: 0.852
[1]; first compound 0.01581 µM
  relative viability: 0.943
[1]; first compound 0.05 µM
  relative viability: 0.203
[1]; first compound 0.1581 µM
  relative viability: 0.176
[1]; first compound 0.5 µM
  relative viability: 0.104
[2]; first compound 0.005 µM
  relative viability: 0.096
[2]; first compound 0.01581 µM
  relative viability: 0.0703
[2]; first compound 0.05 µM
  relative viability: 0.091
[2]; first compound 0.1581 µM
  relative viability: 0.0676
[2]; first compound 0.5 µM
  relative viability: 0.0574

## SK-LU-1
Sulindac + Foretinib; first compound 0.08 µM
  relative viability: 0.981
Sulindac + Foretinib; first compound 0.253 µM
  relative viability: 0.977
Sulindac + Foretinib; first compound 0.8 µM
  relative viability: 0.993
Sulindac + Foretinib; first compound 2.53 µM
  relative viability: 0.751
Sulindac + Foretinib; first compound 8 µM
  relative viability: 0.955
[1]; first compound 0.005 µM
  relative viability: 0.267
[1]; first compound 0.01581 µM
  relative viability: 0.192
[1]; first compound 0.1581 µM
  relative viability: 0.119
[1]; first compound 0.5 µM
  relative viability: 0.132
[2]; first compound 0.005 µM
  relative viability: 0.156
[2]; first compound 0.01581 µM
  relative viability: 0.117
[2]; first compound 0.1581 µM
  relative viability: 0.117
[2]; first compound 0.5 µM
  relative viability: 0.108

## NCI-H522
5-Fluorouracil + AZD7762; first compound 0.02 µM
  relative viability: 0.948
5-Fluorouracil + AZD7762; first compound 0.2 µM
  relative viability: 0.98
5-Fluorouracil + AZD7762; first compound 0.6325 µM
  relative viability: 0.755
5-Fluorouracil + AZD7762; first compound 2 µM
  relative viability: 0.916
[2]; first compound 0.005 µM
  relative viability: 1.2
[2]; first compound 0.01581 µM
  relative viability: 1.14
[2]; first compound 0.05 µM
  relative viability: 0.719
[2]; first compound 0.1581 µM
  relative viability: 0.758
[2]; first compound 0.5 µM
  relative viability: 0.751

## SK-MES-1
Sulindac + Foretinib; first compound 0.08 µM
  relative viability: 1.13
Sulindac + Foretinib; first compound 0.253 µM
  relative viability: 1.38
Sulindac + Foretinib; first compound 0.8 µM
  relative viability: 0.372
Sulindac + Foretinib; first compound 2.53 µM
  relative viability: 0.88
Sulindac + Foretinib; first compound 8 µM
  relative viability: 1.02
[1]; first compound 0.005 µM
  relative viability: 0.626
[1]; first compound 0.01581 µM
  relative viability: 0.581
[1]; first compound 0.05 µM
  relative viability: 0.293
[1]; first compound 0.1581 µM
  relative viability: 0.333
[1]; first compound 0.5 µM
  relative viability: 0.142
[2]; first compound 0.01581 µM
  relative viability: 0.204
[2]; first compound 0.05 µM
  relative viability: 0.121
[2]; first compound 0.1581 µM
  relative viability: 0.149
[2]; first compound 0.5 µM
  relative viability: 0.124

## EBC-1
Sulindac + Foretinib; first compound 0.08 µM
  relative viability: 0.0937
Sulindac + Foretinib; first compound 0.253 µM
  relative viability: 0.0935
Sulindac + Foretinib; first compound 2.53 µM
  relative viability: 0.107
Sulindac + Foretinib; first compound 8 µM
  relative viability: 0.105
[1]; first compound 0.005 µM
  relative viability: 0.107
[1]; first compound 0.01581 µM
  relative viability: 0.102
[1]; first compound 0.05 µM
  relative viability: 0.103
[1]; first compound 0.1581 µM
  relative viability: 0.0621
[1]; first compound 0.5 µM
  relative viability: 0.0633

## NCI-H1650
Sulindac + Foretinib; first compound 0.08 µM
  relative viability: 1.05
Sulindac + Foretinib; first compound 0.253 µM
  relative viability: 1.21
Sulindac + Foretinib; first compound 2.53 µM
  relative viability: 1.24
Sulindac + Foretinib; first compound 8 µM
  relative viability: 1.32
[1]; first compound 0.005 µM
  relative viability: 0.927
[1]; first compound 0.01581 µM
  relative viability: 0.586
[1]; first compound 0.05 µM
  relative viability: 0.201
[1]; first compound 0.1581 µM
  relative viability: 0.216
[1]; first compound 0.5 µM
  relative viability: 0.133
[2]; first compound 0.005 µM
  relative viability: 0.168
[2]; first compound 0.01581 µM
  relative viability: 0.18
[2]; first compound 0.05 µM
  relative viability: 0.183
[2]; first compound 0.1581 µM
  relative viability: 0.16
[2]; first compound 0.5 µM
  relative viability: 0.169

## IA-LM
Sulindac + Foretinib; first compound 0.08 µM
  relative viability: 1.23
Sulindac + Foretinib; first compound 0.253 µM
  relative viability: 1.19
Sulindac + Foretinib; first compound 2.53 µM
  relative viability: 1.2
Sulindac + Foretinib; first compound 8 µM
  relative viability: 1.3
[1]; first compound 0.005 µM
  relative viability: 0.423
[1]; first compound 0.01581 µM
  relative viability: 0.109
[1]; first compound 0.05 µM
  relative viability: 0.139
[1]; first compound 0.1581 µM
  relative viability: 0.1
[1]; first compound 0.5 µM
  relative viability: 0.0733

## NCI-H520
Sulindac + Foretinib; first compound 0.08 µM
  relative viability: 0.876
Sulindac + Foretinib; first compound 0.253 µM
  relative viability: 0.822
Sulindac + Foretinib; first compound 2.53 µM
  relative viability: 0.678
Sulindac + Foretinib; first compound 8 µM
  relative viability: 1.34
[1]; first compound 0.005 µM
  relative viability: 0.692
[1]; first compound 0.01581 µM
  relative viability: 0.759
[1]; first compound 0.05 µM
  relative viability: 0.548
[1]; first compound 0.1581 µM
  relative viability: 0.409
[1]; first compound 0.5 µM
  relative viability: 0.18
[2]; first compound 0.005 µM
  relative viability: 0.194
[2]; first compound 0.01581 µM
  relative viability: 0.309
[2]; first compound 0.05 µM
  relative viability: 0.233
[2]; first compound 0.1581 µM
  relative viability: 0.212
[2]; first compound 0.5 µM
  relative viability: 0.185
